According to patent publication US10414832B2, “Derivatives of sulfated polysaccharides, method of preparation, modification and use thereof” (Contipro a.s., priority 2015, dated 2019):

Assays:
[1] = system: 3T3 fibroblasts; test: Viability tests of 3T3 fibroblasts (MTT method); format: cell-based; conditions: 3T3 cells, 10, 100, 500 and 1000 μg·mL^−1, 0, 24, 48, 72 hours
Procedure: FIG. 3 illustrates the results of the cell viability tests of 3T3 fibroblasts in α,β-unsaturated aldehyde of chondroitin sulfate (Mw=4×10^4 g/mol, DS=20%). The activation vs inhibition curve, expressed in %, with respect to the control in time T=0 h (100%). Evaluation by means of MTT method, six repetitions.
The tested substance, α,β-unsaturated aldehyde of chondroitin sulfate (DS=20%, Mw=40 kDa), was dissolved in a complete 3T3 medium. The solution was filtered via a 0.22 μm filter. The final test concentrations of the tested solution were 10, 100, 500, and 1000 μg·mL^−1. 3T3 cells of the density of 3000 cells per a well were inoculated into 96-well plates. Before the treatment, the cells were cultured for 24 hours in a complete medium. The cell viability was evaluated by spectrophotometry by means of 3-[4,5-dimethylthiazole-2-yl]-2,5-diphenyl tetrazolium bromide (MTT method) in the intervals of 0, 24, 48, 72 hours. The whole experiment was supplemented with a set of non-treated controls and blank samples. The measured optical density data were converted into percentage formulation related to the control in the time T0 hours (the ratio of the optical density of the treated sample with respect to the optical density of the non-treated control T0, multiplied by 100) and the standard error of the mean (SEM) was calculated. The results of the test are graphically presented at FIG. 3.

[2] = Solubility in DMSO; format: physicochemical; conditions: lyophilized acid form
Procedure: A 1% solution of chondroitin sulfate (500 mg, 1.1 mmol) in distilled water was prepared. The solution was cooled to 5° C. and 1.2 ml of Amberlite IR 120 Na(H^+) catex was added. The reaction mixture was stirred for 24 h at 5° C. The catex was filtered off, the product was frozen and lyophilized. Its solubility in DSMO was tested and found satisfactory.

[3] = purchased from Sigma Aldrich; cited from earlier work

Row | Substance | solubility in water [3] [µg/mL] | further results
1 | α,β-unsaturated aldehyde of chondroitin sulfate | – | cytotoxicity (cell viability of 3T3 fibroblasts) [1]: not cytotoxic
2 | Acid Form of Chondroitin Sulfate [Example 26] | – | solubility in DSMO [2]: satisfactory
3 | Lambda carrageenan | 10000 | –
4 | sodium salt of dermatan sulfate | 5000 | –
